From US8084459B2, “Substituted quinazolinones for treating neurological conditions” (Prana Biotechnology Ltd, priority 2004, dated 2011) come the findings set out here.

T1 sequence (P05067 672-713 limits assumed): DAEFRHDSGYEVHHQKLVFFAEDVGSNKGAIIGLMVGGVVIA

One series concerns the target T1, Aβ 1-42 (Homo sapiens, UniProt P05067).
T1 construct: The reaction solutions contained Aβ 1-42 at concentrations
Put plainly: Assay 1 Fluorometric H2O2 assay (peroxide). The format is biochemical. The conditions noted are these: inhibition of H2O2 generation by Aβ with copper. Summed up: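 DCF fluorescence (ex 485/em 530 nm) after 60 min at 37 °C in PBS pH 7.4; Aβ 1-42 (50 nM–1 μM) with Cu-Gly (2:1 to Aβ), dopamine 5 μM or ascorbate, deacetylated DCF 100 μM, HRP 0.1 μM, and test compound. H2O2 quantified against H2O2 standards.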
As for `O=c1c2c(Cl)cc(Cl)c(O)c2ncn1CCN1CCCC1` [Compound 1075], it took 730 nM to reach half-maximal inhibition (IC50).

The molecule `O=c1c2c(Cl)cc(Cl)c(O)c2ncn1Cc1ccccn1` [Compound 1077] came in with a half-maximal inhibitory concentration (IC50) of 480 nM.

With `Cc1nc(Cn2cnc3c(O)c(Cl)cc(Cl)c3c2=O)cs1` [Compound 1084], the IC50 turned out to be 360 nM.

For `Cc1noc(C)c1Cn1cnc2c(O)c(Cl)cc(Cl)c2c1=O` [Compound 1085], the IC50 is 370 nM.

Molecule `Br.CCCn1cnc2c(O)c(Cl)cc(Cl)c2c1=O` [Compound 1097] gave a half-inhibitory concentration (IC50) of 280 nM.

The next series deals with soluble and insoluble Aβ in the brain. The experiment in a line: Assay 11 effect on Aβ deposits in transgenic animals (soluble and insoluble Aβ, Western blot). The format is in vivo, APP2576 transgenic mouse. Conditions: insoluble Aβ, APP2576 mice.
`O=c1c2c(Cl)cc(Cl)c(O)c2ncn1CCN1CCCC1` [Compound 1075]: the “Tg mice Insoluble Fraction: % change compared with vehicle alone control mice” value (“Tg mice Insoluble Fraction: % change” below) is “+9% (insol),”.

`O=c1c2c(Cl)cc(Cl)c(O)c2ncn1Cc1ccccn1` [Compound 1077]: the “Tg mice Insoluble Fraction: % change” value was “Negligible effect on”.

In the case of `Cc1nc(Cn2cnc3c(O)c(Cl)cc(Cl)c3c2=O)cs1` [Compound 1084], the “Tg mice Insoluble Fraction: % change” value is recorded as −17% (insol),.

Take `Br.CCCn1cnc2c(O)c(Cl)cc(Cl)c2c1=O` [Compound 1097]: the “Tg mice Insoluble Fraction: % change” value was “+1% (insol)”.

Staying with this series, now noted: soluble Aβ, APP2576 mice.
With `O=c1c2c(Cl)cc(Cl)c(O)c2ncn1CCN1CCCC1` [Compound 1075], the “Tg mice Soluble Fraction: % change compared with vehicle alone control mice” value (“Tg mice Soluble Fraction: % change” below) is on record as −19% (sol),.

With `O=c1c2c(Cl)cc(Cl)c(O)c2ncn1Cc1ccccn1` [Compound 1077], the “Tg mice Soluble Fraction: % change” value was −17% (sol),.

For `Cc1nc(Cn2cnc3c(O)c(Cl)cc(Cl)c3c2=O)cs1` [Compound 1084], the “Tg mice Soluble Fraction: % change” value is recorded as −29% (sol).

Take `Br.CCCn1cnc2c(O)c(Cl)cc(Cl)c2c1=O` [Compound 1097]: the “Tg mice Soluble Fraction: % change” value was −22% (sol).

System in the next series: not listed separately
The experiment in a line: Assay 3(d) test compound cytotoxicity (MTS). The format is cell-based. The conditions noted are these: BL6Jx129sv, mouse, primary cortical neuronal cultures, 1 uM, cortical neurons, read-out: Assay 3(d) Cytotoxicity (% viable at 1 uM). In short, it runs like this: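 E14 mouse (BL6Jx129sv) primary cortical neurons cultured 5 days, then exposed on day 6 to compound prediluted in Neurobasal/B27 without antioxidants, working solutions 2.5, 25, 250 uM, in triplicate for 4 days at 37 °C. Viability by MTS, 2 h at 37 °C, absorbance 560 nm.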
`O=c1c2c(Cl)cc(Cl)c(O)c2ncn1CCN1CCCC1` [Compound 1075]: the viability at 4 days, 1 µM turned out to be 99%.

For `O=c1c2c(Cl)cc(Cl)c(O)c2ncn1Cc1ccccn1` [Compound 1077], the viability at 4 days, 1 µM was found to be 101%.

On to `Cc1nc(Cn2cnc3c(O)c(Cl)cc(Cl)c3c2=O)cs1` [Compound 1084], for which the viability at 4 days, 1 µM was 100%.

Consider `Cc1noc(C)c1Cn1cnc2c(O)c(Cl)cc(Cl)c2c1=O` [Compound 1085], for which the viability at 4 days, 1 µM is 99%.

Turning to `Br.CCCn1cnc2c(O)c(Cl)cc(Cl)c2c1=O` [Compound 1097], the viability at 4 days, 1 µM was found to be 99%.

Still in this series, the particulars now being: BL6Jx129sv, mouse, primary cortical neuronal cultures, 10 uM, cortical neurons, read-out: Assay 3(d) Cytotoxicity (% viable at 10 uM).
With `O=c1c2c(Cl)cc(Cl)c(O)c2ncn1CCN1CCCC1` [Compound 1075], the viability at 4 days, 10 µM worked out at 87%.

For the molecule `O=c1c2c(Cl)cc(Cl)c(O)c2ncn1Cc1ccccn1` [Compound 1077], the viability at 4 days, 10 µM turned out to be 86%.

Take `Cc1nc(Cn2cnc3c(O)c(Cl)cc(Cl)c3c2=O)cs1` [Compound 1084]: the viability at 4 days, 10 µM was found to be 93%.

`Cc1noc(C)c1Cn1cnc2c(O)c(Cl)cc(Cl)c2c1=O` [Compound 1085]: the viability at 4 days, 10 µM came out at 72%.

`Br.CCCn1cnc2c(O)c(Cl)cc(Cl)c2c1=O` [Compound 1097]: the viability at 4 days, 10 µM was determined as 78%.
